In a melting point compilation (Tetko et al.; mined from patent text by program, amines drawn as free bases though some values may be those of a salt):

Row | melting point | SMILES
1 | 179 °C | COC(=O)c1ccc2cc(C(=O)c3cc(OCc4ccc(F)cc4)c4c(c3)C(C)(C)CCC4(C)C)ccc2c1
2 | 113 to 118 °C | CCOC(=O)C=Cc1csc(Nc2ccccc2)n1
3 | 65 to 66 °C | COc1cccc(CN[C@@H](C)C2CCCCC2)c1O
4 | 158 to 160 °C | CC(=O)c1cn(C)c2ccc(F)cc12
5 | 307 to 308 °C | CN(C)c1ccc2c(c1)C(=O)CC(c1cccc(OCc3ccccc3)c1)=N2
6 | 238 °C | CNC(=O)Cn1c(-c2ccc(Cl)cc2)nc2cccnc21
7 | 145 to 146 °C | Cc1cc(CN2CC(=O)N(c3cnn(Cc4c(C)noc4C)c3)C2=O)n(C)n1
8 | 186 to 187 °C | COc1ccc(-c2c(CO)c(CO)c3n2-c2ccc(OC)cc2C3)cc1
9 | 95 to 97 °C | c1cc2c3c(cccc3c1)C(NCCCCCCCCCCCCn1ccnc1)=N2
10 | 91 to 93 °C | CN(C(=O)CCCCC1SCC2NC(=O)NC21)c1ccc(/C=C/c2c(F)cccc2F)cc1 (stereo not given)
11 | 127 to 128 °C | CCCc1nc2c(N)nc(C)c(C)c2n1CCCCS(=O)(=O)N(C)C
12 | 59 to 62 °C | COc1ccc(CCCN(Cc2ccccc2)C[C@@H](O)c2ccc(OCc3ccccc3)c(OCc3ccccc3)c2)cc1
13 | 201 °C | CCCCCCCCCN1C(=O)c2ccc3c4cccc5cccc(c6ccc(c2c36)C1=O)c54
14 | 150 to 154 °C | O=C(N[C@H]1CN(Cc2ccccc2)[C@@H]2CCO[C@H]12)C(F)(F)F (relative stereo)
15 | 120 to 121 °C | COC(=O)c1ccccc1-c1ccc(Cc2nc(-c3ccccc3)nc3ccccc23)cc1
16 | 215 to 217 °C | Cc1ccc(S(=O)(=O)N2CCN(C(=O)c3ccc(Nc4ccnc5cc(C(F)(F)F)ccc45)cc3)CC2)cc1
17 | 160 °C | CSc1ccc(C)cc1C(N)=S
18 | 265 °C | Cc1cccc(C2(O)CCN(c3ccc(O)nn3)CC2)c1
19 | 88 to 93 °C | COc1cc(C(=O)NS(=O)(=O)c2ccccc2C)ccc1Cc1cccc2ccc(CCCCC(=O)N(C)C)cc12
20 | 300 °C | COc1ccc(-c2c(Cl)c(CN3C(=O)CCC3=O)nc3sc4c(c23)CCS(=O)(=O)C4)cc1
21 | > 260 °C | O=Cc1nn(-c2ccc(O)cc2)c2c1CCCC2Cc1cccc2ccccc12 (stereo not given)
22 | 86 to 90 °C | CCC1(CC(=O)OC)OCC(O)c2c1[nH]c1ccccc21 (stereo not given)
23 | 214 to 215 °C | O=C(O)c1cccc(-c2ccc(Cl)c3cc(Cc4ccc(F)c(F)c4)sc23)c1
24 | 155 to 157 °C | CC(C)(C)c1ccc(N2CC(COC(=O)c3ccccc3C(=O)O)CC2=O)cc1 (stereo not given)
25 | 185 °C | CN(C)C=CC(=O)c1ccc(OCC(O)CN2CCN(c3ccc(Cl)cc3)CC2)cc1 (stereo not given)

Row | melting point | SMILES
26 | 252 to 254 °C | Cc1ncc2cc(-c3ccc(F)cc3)c(N)nc2n1
27 | 158 to 159 °C | COc1ccc(S(=O)(=O)Nc2ccccc2NC(=O)c2ccco2)cc1
28 | 221 to 223 °C | O=c1[nH]c2cc(C(F)(F)F)cc(Br)c2[nH]c1=NO
29 | 110 to 115 °C | CCOC(=O)C1=C(C(F)(F)F)Nc2n[nH]cc2C1c1ccccc1 (stereo not given)
30 | 136 to 142 °C | COC(OC)C1CCC2C3CCC4CC(O)CCC4(C)C3C(=O)CC12C (stereo not given)
31 | 150 to 151 °C | CCN(CC)Cc1nc2sc3c(c2c(-c2ccc(OC)c(OC)c2)c1Cl)CCN(Cc1ccccc1)C3
32 | 244 to 247 °C | COc1ccc(-c2csc(Nc3ccc(C(F)(F)F)cn3)n2)cc1OC
33 | 219 to 220 °C | O=C(NC1c2sc([N+](=O)[O-])cc2OCC1O)c1ccc(C(F)(F)F)cc1 (stereo not given)
34 | 117 to 118 °C | COCCNC(=O)c1ccc(SC)c([N+](=O)[O-])c1
35 | 147 to 148 °C | N=C(Nc1ccccc1-c1cccc(F)c1)N1CCC(O)CC1
36 | > 260 °C | O=C1CCC(N2Cc3c(CNC(=O)c4ccc(Cl)c(Cl)c4)cccc3C2=O)C(=O)N1 (stereo not given)
37 | 250 to 254 °C | Cc1cc(-n2c(=O)[nH]c3ccccc32)cc2c1NC(=O)CC2C (stereo not given)
38 | 186 to 187 °C | Cc1ccc(NC(=O)c2ccc(C(=O)Nc3ccccc3NC(=O)OC(C)(C)C)nc2)cc1Nc1nccc(-c2cccnc2)n1
39 | 212 to 215 °C | CCOC(=O)c1c(-c2ccncc2)[nH]c(-c2ccncc2)c1CC
40 | 103 to 104 °C | CC(=NOCC(N)=O)c1ccc(Cl)cc1
41 | < 270 °C | CC(C)(C)[Si](C)(C)Oc1ccc2cc3c(cc2c1)C(=O)c1cc2ccc(O[Si](C)(C)C(C)(C)C)cc2cc1C3=O
42 | 204 to 207 °C | Cn1nc(N2c3cc(F)ccc3CC2C(=O)N2CCCCCC2)ccc1=O (stereo not given)
43 | 109 to 111 °C | CC1(C)Oc2ccc(C#N)cc2C(NC(=O)C(N)c2ccccc2)C1O (stereo not given)
44 | 142 °C | Cc1c(C(=O)Nc2ccc(SCCCN3CCCCC3)c(C#N)c2)cnn1-c1ccc(Cl)cc1
45 | > 250 °C | O=C1Nc2cccc(O)c2C12COc1cc3c(cc12)OCCO3 (stereo not given)
46 | 85 to 87 °C | COc1ccc2ccc(C(O)C(F)(F)F)cc2c1 (stereo not given)
47 | 86 to 91 °C | CC(NC(=O)CCCl)c1ccc(Cl)cc1 (stereo not given)
48 | 107 to 110 °C | CCCc1nc(C(=O)C(C)(C)C)c(C#N)n1Cc1ccc(-c2ccccc2-c2nnnn2C(c2ccccc2)(c2ccccc2)c2ccccc2)cc1
49 | 250 to 251 °C | c1ccc2c(c1)c(-c1nnn[nH]1)cc1nnnn12
50 | 73 to 75 °C | C[Si](C)(C)CCCCCC1=C(O)C(=O)c2ccccc2C1=O

Row | melting point | SMILES
51 | 124 to 125 °C | CC1=C(O)C(=O)C(C)(CO)O1 (stereo not given)
52 | > 250 °C | Cc1oc2c(NC(=O)c3c(Cl)cccc3Cl)cc(C(N)=O)cc2c1C
53 | 135 °C | O=S(=O)(c1ccc(F)cc1)N1CCCC1c1ccsc1 (racemic)
54 | 245 °C | COc1cccc2c1C(=O)c1nc(-c3ccccc3)sc1C2=O
55 | 152 to 153 °C | CCOC(=O)C(=O)CC(=O)c1cn(Cc2ccccc2F)c2ccccc2c1=O
56 | 213 to 214 °C | COc1ccc2[nH]c(=O)c(-c3nnn(Cc4cccc(OCc5ccc6ccccc6n5)c4)n3)cc2c1
57 | 173 to 175 °C | O=S(=O)(Cl)c1cccc2[nH]nnc12
58 | 238 to 243 °C | N=C(NO)c1ccc2cc(O)c(O)cc2c1
59 | 148 to 149 °C | COC(=O)c1sc(-c2ccc(OC)cc2)cc1NC(C)=O
60 | 172 to 174 °C | CC(C)(C)OC(=O)NCCNC(=O)C1CCN(C(=O)OC(C)(C)C)CC1
61 | 141 to 142 °C | COC(=O)C1CSC(c2cc3ccccc3[nH]2)=N1 (stereo not given)
62 | 178 to 179 °C | O=C(/C=C/c1ccc(S(=O)(=O)N2CCN(c3cccc(C(F)(F)F)c3)CC2)cc1)NO
63 | 159 to 161 °C | COCC(=O)OC(CC1CC1)c1ccc(Cl)c2nc3n(c12)CCCN3c1ccc(Cl)cc1Cl (stereo not given)
64 | 142 to 143 °C | O=C1c2ccccc2C(=O)N1CCN1c2ccccc2N(Cc2ccccc2)C(=O)[C@H]2CCC[C@H]21 (relative stereo)
65 | 235 °C | CCNC(=O)Nc1cnc2ccc(Nc3ccc(C)cc3)nc2n1
66 | 100 to 103 °C | OC(CCN1CCN(c2ccccc2)CC1)COc1ccc(Br)cc1 (stereo not given)
67 | 132 °C | Oc1ccccc1Cc1ccc(Cl)nn1
68 | 122 to 125 °C | COc1ccccc1N1CCN(CC(O)COc2ccc3cc(C(C)=O)oc3c2)CC1 (stereo not given)
69 | 80 to 83 °C | Cc1ccc(N(C(=O)CCl)c2c(F)cccc2Cl)cc1
70 | 42 to 43 °C | CCCCC#CCCOc1cc(C=O)ccc1OC
71 | 247 to 248 °C | COc1cc(NC(=O)c2ccccc2Cl)ccc1C(=O)N1CCCC(OCCS(=O)(=O)c2ncc[nH]2)c2cc(Cl)ccc21 (stereo not given)
72 | 98 to 99 °C | Cc1noc(CCCCCCCOc2ccc(C3=NCCO3)cc2)c1CN1CCCC1
73 | 205 to 208 °C | CCOC(=O)c1cc(-n2c(=O)[nH]c3c(c2=O)CCC3)ccc1[N+](=O)[O-]
74 | 95.5 to 101 °C | Cc1ccncc1CN1CCC(=C2c3ccc(Cl)cc3CCc3cccnc32)CC1
75 | 249 °C | Cn1c2ncccc2c(=O)n2nccc12

Row | melting point | SMILES
76 | 197 to 198 °C | CCc1c(F)c(F)c(F)c2c1c(=O)c(C(=O)O)cn2C1CC1
77 | 193 to 195 °C | O=C(CCl)NC(C(=O)O)c1cscn1 (stereo not given)
78 | 84 to 85 °C | CCCCc1ccc(NC(=O)CCc2ccccc2)c(=O)n1CC(=O)OC
79 | 121 to 125 °C | COC(=O)C1CCC2C3CCC4=CC(O)CCC4(C)C3C(=O)CC12C (stereo not given)
80 | 192 to 195 °C | CS(=O)(=O)CCCCCn1c(C(F)(F)F)nc2c(N)nc3ccccc3c21
81 | 188 to 189 °C | Cc1ccc(S(=O)(=O)n2c(-c3cn(C)c4ccc(C=O)cc34)cc3cccnc32)cc1
82 | 129 to 131 °C | O=C1NC(=O)C(S(=O)(=O)c2ccccn2)S1 (stereo not given)
83 | 99 to 100 °C | CC(C)C[C@H](NC(=O)OCc1ccccc1)C(=O)N[C@@H](Cc1ccccc1)C(=O)CN1CCN(C)CC1
84 | 43 to 45 °C | COC(=O)CCCCc1cccnc1CNC=O
85 | 122 to 124 °C | O=C(OCCN1CCOC1=O)c1ccccc1Nc1ccnc2cc(Cl)ccc12
86 | 182 to 184 °C | C[C@H](O)Cn1c(=O)c(Oc2ccc(F)cc2F)cc2cnc(NC(C)(C)CO)nc21
87 | 225 °C | Cc1cc(Cl)c([N+](=O)[O-])c(=O)[nH]1
88 | 158 to 160 °C | CC(C)(C)OC(=O)C(N)CCCCNC(=O)c1ccc(Cl)c(S(N)(=O)=O)c1 (stereo not given)
89 | 261 to 262 °C | Cn1c2ccc(Cl)cc2c2c(CC(=O)N3CCCC3)nn(-c3ccccc3)c(=O)c21
90 | 199 to 201 °C | O=c1oc(-c2ccccc2)nc2ccc(Br)cc12
91 | 45 to 46 °C | CCOC(=O)c1ccc(OCCCCCCCCCCC(C(=O)CC)C(=O)CC)cc1
92 | 110 to 111 °C | COCC(=O)Nc1cccc(NC(=O)COC)c1
93 | 92 to 95 °C | C#CCN1C(=O)CCc2cc(Cl)cc(Cl)c21
94 | 70 to 74 °C | CNC(=O)NC(=O)C(CC1CCC(=O)C1)c1ccc(Cl)c(Cl)c1 (stereo not given)
95 | > 350 °C | NC(=O)Nc1ccc(/C=C/C(=O)O)cc1
96 | 135 to 136 °C | BrCCOc1ccc2[nH]c3ccccc3c2c1
97 | 96 to 98 °C | Brc1cn2ccsc2n1

Row | SMILES | melting point
98 | CCC1Cc2ccc(NC(=N)c3cccs3)cc2CN1C (stereo not given) | 125 to 126 °C
99 | CN1C(=O)NC(=O)C(C=O)C1=O (stereo not given) | 197 to 199 °C
100 | O=C(O)C1CCCC2CSc3ccccc3C21 (stereo not given) | 200 to 203 °C
